From patent publication EP0029617A1, “Use of tertiary heterocyclic amines as synergists in pesticides; derivatives of cycloamines” (priority 1979, dated 1981)

System: Kornkäfer (sitophilus granarius L)
Assay: whole plant or invertebrate
Type: in vivo
Details: for Wirksamkeit in % Substanz allein / mortality at 1000 µg/mL: amine 1 mg/ml in Aceton mixed 1 : 1 with Aceton, 2 ml per dish, 25 weevils, dead counted after 3 h; for Wirksamkeit in % Substanz +Ripcord: amine 1 mg/ml mixed 1 : 1 with Ripcord 0,01 mg/ml; for Wirksamkeit in % Substanz +Talcord: amine 1 mg/ml mixed 1 : 1 with Talcord 0,01 mg/ml; for mortality at 1000 µg/mL / mortality at 100 µg/mL: Sitophilus granarius; for mortality at 1000 µg/mL: read-out: Wirksamkeit in % Substanz allein; for % Wirkung Substanz +Ripcord / % Wirkung Substanz +Talcord: Pyrethroid : Amin 1 : 10, amine 0,1 mg/ml, 180 min; for mortality at 100 µg/mL: amine 0,1 mg/ml (as for Pyrethroid : Amin 1 : 10), read-out: % Wirkung Substanz allein
Procedure: Test von tertiären, heterocyclischen Aminen allein und im Gemisch mit Pyrethroiden an Kornkäfern (sitophilus granarius L)
In Petrischalen mit 15 cm Durchmesser mit talcumbepuderten Seitenwänden, um das Entfliehen der Kornkäfer zu verhindern, wurden jeweils 2 ml der Acetonlösungen einpipettiert und durch vorsichtiges Schwenken der Schalen gleichmäßig auf dem Boden verteilt. Nach dem Abdampfen des Acetons und dem Antrocknen der Beläge wurden in jede Schale 25 Kornkäfer eingezählt. Nach einer Stunde wurde jeweils ein 12,5 cm Rundfilter in die Schalen eingelegt, um den Käfern das Befreien aus der Rückenlage zu ermöglichen, was auf der glatten Glasplatte nicht möglich ist. Die lichtscheuen Käfer verkrochen sich mit Vorliebe unter die Filter und blieben so ständig mit den Wirkstoffbelägen in Kontakt. Alle Versuche liefen mit 3 Wiederholungen. Nach 3 h wurden die toten Käfer ausgezählt.
In der Tabelle 3 ist jeweils der Durchschnitt der Summe der 4 Einzelwerte angegeben. 25 tote Kornkäfer entsprechen dabei einer Wirkung von 100 %. Die Temperaturen betrugen während der Tests im Durchschnitt 19 - 21°C. Der synergistische Faktor berechnet sich analog wie in Beispiel 1 angegeben.
Die zu prüfenden tertiären, heterocyclischen Amine wurden - mit 1 mg Wirkstoff pro ml als Acetonlösungen angesetzt. Sie wurden im Verhältnis 1 : 1 mit Ripcord bzw. Talcord, die mit 0,01 mg Wirkstoff pro ml als Acetonlösung vorlagen, gemischt. Die Einzelkomponenten wurden im Verhältnis 1 : 1 mit Aceton gemischt.
Auch bei diesen Versuchen zeigten die Kontrollversuche stets bei Versuchsende eine Mortalität der Kornkäfer von 0 %.
Die synergistische Wirkung der tertiären, heterocyclischen Amine auf die Pyrethroide ist auch dann noch deutlich, wenn das Amin in wesentlich niederen Aufwandmengen eingesetzt wird, als dies in Beispiel 3 beschrieben wurde. Die Ergebnisse sind in der Tabelle 4 zusammengestellt. Dieser Versuch zeigt auch, daß Amine mit insektiziden Eigenschaften, wenn sie in Konzentrationen unterhalb ihres insektiziden Wirkungsbereiches eingesetzt werden, immer noch gute synergistische Wirkungen im Gemisch mit Pyrethroiden zeigen. Die Versuche wurden wie im Beispiel 3 beschrieben mit Kornkäfern durchgeführt. Es wurden lediglich die Konzentrationen der eingesetzten tertiären, heterocyclischen Amine geändert. Für die Verdünnung Pyrethroid : Amin = 1 : 10 wurde das Amin mit 0,1 mg Wirkstoff/ml Acetonlösung eingesetzt. Für die Verdünnung 1 : 5 mit 0,05 mg Wirkstoff/ml.

[1] = amine 1 mg/ml + Ripcord 0,01 mg/ml
[2] = amine 1 mg/ml + Talcord 0,01 mg/ml

| Compound | Synergistischer Faktor bei Ripcord [1] | Synergistischer Faktor bei Talcord [2] | Wirksamkeit in % Substanz allein [%] | Wirksamkeit in % Substanz +Ripcord (3 h) | Wirksamkeit in % Substanz +Talcord (3 h) | mortality at 1000 µg/mL [%] | Synergistischer Faktor bei Ripcord (Pyrethroid : Amin 1 : 10) | Synergistischer Faktor bei Talcord (Pyrethroid : Amin 1 : 10) | % Wirkung Substanz +Ripcord | % Wirkung Substanz +Talcord | mortality at 100 µg/mL (3 h) [%] | Wirksamkeit von Ripcord (Ripcord alone, 0,01 mg/ml mixed 1 : 1 with Aceton, 3 h) |
| --- | --- | --- | --- | --- | --- | --- | --- | --- | --- | --- | --- | --- |
| CCOC(=O)C(c1ccccc1)N1CCCC1 (stereo not shown) [Phenyl-N-pyrrolidin-essigsäure-ethylester] | 2,92 | 2,60 | 0 | 92,0% | 25,2% | – | – | – | – | – | – | – |
| CCCCCCCCCCCCCN1CCCC1 [N-1-Tridecyl-pyrrolidin] | 1,78 | 2,19 | – | 78,8% | 44,0% | 22.8 | – | – | – | – | – | – |
| c1ccc2cc(CN3CCCCC3)ccc2c1 [2-N-Piperidino-methyl-naphthalin] | 3,05 | 9,07 | 0 | 96,0% | 88,0% | – | – | – | – | – | – | – |
| c1ccc(OCCCN2CCCCCC2)cc1 [N-3-Phenoxi-propyl-(1)-hexamethylenimin] | 2,03 | 3,42 | 0 | 64,0% | 33,2% | – | – | – | – | – | – | – |
| OCCC(O)N1CCCC1 (stereo not shown) [1-N-Pyrrolidino-propandiol-(1,3)] | 3,17 | 8,12 | 0 | 100,0% | 78,8% | – | – | – | – | – | – | – |
| CCOCCN1CCCC1 [N-1-(1'-Ethoxiethyl-(2))-pyrrolidin] | 2,22 | – | 0 | 70,0% | 0% | – | – | – | – | – | – | – |
| c1cc2c(cc1CN1CCOCC1)OCO2 [N-Piperonyl-morpholin] | 2,32 | 3,84 | – | 73,2% | 37,2% | 0 | – | – | – | – | – | – |
| CCCCCCCCCCCCCCN1CCCC1 [N-1-Tetradecyl-pyrrolidin] | 1,59 | – | – | 50,0% | 6,0% | 0 | – | – | – | – | – | – |
| CCCCCCCCCN1CCCCCC1 [N-1-Nonyl-hexamethylenimin] | 1,82 | 4,54 | – | 97,2% | 84,0% | 40 | – | – | – | – | – | – |
| CCCCCCCCCCCN1CCCC1 [N-1-Undecyl-pyrrolidin] | – | – | – | – | – | – | 3,09 | 7,42 | 97,2% | 72,0% | 0 | – |
| N-Hydrinden-piperidin | 1,36 | 5,90 | 0 | 42,8% | 57,2% | – | – | – | – | – | – | – |
| CCOC(=O)C(CC)N1CCOCC1 (stereo not shown) [2-N-Morpholino-buttersäure-ethylester] | 1,56 | 3,30 | 0 | 49,2% | 32,0% | – | – | – | – | – | – | – |
| CCCCC(CC)CN1CCCC1 (stereo not shown) [N-1-(2-Ethyl)-hexyl-pyrrolidin] | 1,78 | 4,24 | 0 | 56,0% | 41,2% | – | – | – | – | – | – | – |
| c1ccc(CCN2CCOCC2)cc1 [N-1-Phenyl-ethyl-(2)-morpho-lin] | 2,76 | 7,55 | 0 | 86,8% | 73,2% | – | – | – | – | – | – | – |
| CCCCCCCCCCCN1CCCCCC1 [N-1-Undecyl-hexamethylenimin] | – | – | – | 73,1% | 81,2% | 0 | – | – | 92,0% | 73,2% | 0 | – |
| c1ccc(OCCN2CCCCCC2)cc1 [N-2-Phenoxi-ethyl-(1)-hexa-methylenimin] | 2,70 | 5,09 | 0 | 85,2% | 49,4% | – | – | – | – | – | – | – |
| C=CC(C)(CCC=C(C)CCC=C(C)C)N1CCCC1 (stereo not shown) [3-N-pyrrolidino-3,7,11-tri-methyl-1,6,10-dodecatrien] | 3,00 | 3,59 | 0 | 94,8% | 34,8% | – | – | – | – | – | – | – |
| C(CCCCCN1CCCC1)CCCCN1CCCC1 [1,10-N,N-Di-pyrrolidino-decan] | 2,54 | 3,00 | 0 | 80,0% | 29,2% | – | – | – | – | – | – | – |
| CCCCCN1CCCC1 [N-1-Pentyl-pyrrolidin] | 2,37 | 10,3 | – | 74,8% | 100,0% | 0 | – | – | – | – | – | – |
| c1ccc(COCCN2CCOCC2)cc1 [N-(2-Benzyloxi-ethyl-(1))-morpholin] | 1,61 | 3,30 | 0 | 50,8% | 32,0% | – | – | – | – | – | – | – |
| OCC(CO)(CO)CN1CCCCC1 [N-Piperidino-pentaerythrit] | 1,99 | 3,30 | 0 | 62,8% | 32,0% | – | – | – | – | – | – | – |
| O=[N+]([O-])c1ccc(CN2CCCCC2)cc1 [N-4-Nitro-benzyl-piperidin] | 1,47 | 1,77 | – | 49,2% | 20,0% | 2.8 | – | – | – | – | – | – |
| CCC/C=C(\CC)CN1CCCC1 [cis-3-N-pyrrolidino-methyl-hepten-(3)] | 1,61 | 1,65 | 0 | 50,8% | 16,0% | – | – | – | – | – | – | – |
| C(=Cc1ccccc1)CN1CCOCC1 [N-Cinnamyl-morpholin] | 1,74 | 4,54 | – | 54,8% | 44,0% | 0 | – | – | – | – | – | – |
| CN(C)C(=O)N1CCCCC1 [N-Dimethyl-carbamoyl-piperidin] | 1,69 | 6,60 | 0 | 53,2% | 64,0% | – | – | – | – | – | – | – |
| CCOC(=O)CCN1CCOCC1 [N-Morpholino-propionsäure-ethylester] | 2,07 | 2,76 | 0 | 65,2% | 26,8% | – | – | – | – | – | – | – |
| c1cc2c(cc1CN1CCCCCC1)OCO2 [N-Piperonyl-hexamethylenimin] | 3,05 | 7,01 | – | 96,0% | 68,0% | 0 | – | – | – | – | – | – |
| c1ccc(OCCN2CCCC2)cc1 [N-1-2-phenoxiethyl-pyrrolidin] | 1,69 | 2,88 | 0 | 53,2% | 28,0% | – | – | – | – | – | – | – |
| CC1(C)C(C=C(Cl)Cl)C1C(=O)OC(C#N)c1cccc(Oc2ccccc2)c1 (stereo not shown) [Ripcord, reference compound] | – | – | – | – | – | – | – | – | – | – | – | Wirksamkeit von Ripcord: 31,5% |
| c1ccc(CN2CCOCC2)cc1 [N-Benzyl-morpholin] | 1,43 | 2,19 | – | 45,2% | 21,2% | 0 | – | – | – | – | – | – |
